From ChEMBL document CHEMBL1201862, “PubChem BioAssay data set” (2004)
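Cells were grown in 96-well plates and exposed to each compound for 48 hours at five concentrations; endpoints were interpolated linearly between bracketing concentrations, or set to the highest concentration if not reached. At the GI50, growth is halved.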 The source made the active and inactive calls. Rule as the data show it: active = GI50 up to about 1.1 µM and inactive = higher.

Legend:
Assay in all cases: inhibition of tumour cell growth, NCI panel, 48 h
[1] = test system: MDA-MB-435
[2] = test system: BT-549
[3] = test system: NCI-H23
[4] = test system: RXF 393
[5] = test system: MCF7
[6] = test system: Malme-3M
[7] = test system: OVCAR-4
[8] = test system: SF-539
[9] = test system: U-251
[10] = test system: NCI/ADR-RES
[11] = test system: A549
[12] = test system: KM12
[13] = test system: LOX IMVI
[14] = test system: SK-OV-3
[15] = test system: UACC-62
[16] = test system: HOP-62
[17] = test system: ACHN
[18] = test system: NCI-H460
[19] = test system: EKVX
[20] = test system: SK-MEL-28
[21] = test system: CAKI-1
[22] = test system: TK-10
[23] = test system: SK-MEL-5
[24] = test system: OVCAR-8
[25] = test system: UACC-257
[26] = test system: Hs-578T
[27] = test system: PC-3
[28] = test system: 786-0
[29] = test system: T47D
[30] = test system: HOP-92
[31] = test system: DU-145
[32] = test system: UO-31
[33] = test system: COLO 205
[34] = test system: HCC 2998
[35] = test system: MDA-MB-231
[36] = test system: NCI-H226
[37] = test system: MDA-N
[38] = test system: SF-295
[39] = test system: CCRF-CEM
[40] = test system: MOLT-4
[41] = test system: HCT-116
[42] = test system: SNB-75
[43] = test system: A498
[44] = test system: HCT-15
[45] = test system: IGROV-1
[46] = test system: K562
[47] = test system: NCI-H522
[48] = test system: OVCAR-3
[49] = test system: M14
[50] = test system: SK-MEL-2
[51] = test system: SF-268
[52] = test system: SW-620
[53] = test system: OVCAR-5
[54] = test system: HT-29
[55] = test system: SN12C
[56] = test system: SNB-19
[57] = test system: RPMI-8226
[58] = test system: HL-60

In the case of `OC1[C@@H]2[C@@H](O)[C@H](O)[C@@H](O)N2C[C@@H]1O` (stereo not given in full), the GI50 [1] is reported as > 100 µM (inactive), the GI50 [2] is reported as > 100 µM (inactive) and the GI50 [3] is reported as > 100 µM (inactive). The GI50 [4] was > 100 µM (inactive), the GI50 [5] was > 100 µM (inactive) and the GI50 [6] was > 100 µM (inactive). The GI50 [7] was > 100 µM (inactive), the GI50 [8] was > 100 µM (inactive) and the GI50 [9] was > 100 µM (inactive). For the same compound, the GI50 [10] was > 100 µM (inactive), the GI50 [11] was > 100 µM (inactive) and the GI50 [12] was > 100 µM (inactive). For the same compound, the GI50 [13] was > 100 µM (inactive), the GI50 [14] was > 100 µM (inactive) and the GI50 [15] was > 100 µM (inactive). For the same compound, the GI50 [16] was > 100 µM (inactive), the GI50 [17] was > 100 µM (inactive) and the GI50 [18] was > 100 µM (inactive). The GI50 [19] was > 100 µM (inactive), the GI50 [20] was > 100 µM (inactive) and the GI50 [21] was > 100 µM (inactive). The GI50 [22] was > 100 µM (inactive), the GI50 [23] was > 100 µM (inactive) and the GI50 [24] was > 100 µM (inactive). The GI50 [25] was > 100 µM (inactive), the GI50 [26] was > 100 µM (inactive) and the GI50 [27] was > 100 µM (inactive). For the same compound, the GI50 [28] was > 100 µM (inactive), the GI50 [29] was > 100 µM (inactive) and the GI50 [30] was > 100 µM (inactive). The GI50 [31] was > 100 µM (inactive), the GI50 [32] was > 100 µM (inactive) and the GI50 [33] was > 100 µM (inactive). The GI50 [34] was > 100 µM (inactive), the GI50 [35] was > 100 µM (inactive) and the GI50 [36] was > 100 µM (inactive). The GI50 [37] was > 100 µM (inactive), the GI50 [38] was > 100 µM (inactive) and the GI50 [39] was > 100 µM (inactive). For the same compound, the GI50 [40] was > 100 µM (inactive), the GI50 [41] was > 100 µM (inactive) and the GI50 [42] was > 100 µM (inactive). For the same compound, the GI50 [43] was > 100 µM (inactive), the GI50 [44] was greater than 100 µM and the GI50 [45] was > 100 µM (inactive). For the same compound, the GI50 [46] was > 100 µM (inactive), the GI50 [47] was > 100 µM (inactive) and the GI50 [48] was > 100 µM (inactive). For the same compound, the GI50 [49] was > 100 µM (inactive), the GI50 [50] was > 100 µM (inactive) and the GI50 [51] was > 100 µM (inactive). The GI50 [52] was > 100 µM (inactive), the GI50 [53] was > 100 µM (inactive) and the GI50 [54] was > 100 µM (inactive). The GI50 [55] was > 100 µM (inactive) and the GI50 [56] was > 100 µM (inactive).

For `COC(C)(C)C(O)C(O)C[C@H](C)C1CC=C2C1(C)CCC1[C@@]3(C)CCC(OC(C)=O)C(C)(C)C3CC(OC3OC(COC(C)=O)C(O)C(O)C3O)[C@@]21C` (stereo not given in full), the GI50 [1] was 3.24 µM (inactive), the GI50 [2] was > 10 µM (inactive) and the GI50 [3] was 4.85 µM (inactive). The GI50 [4] was 3.85 µM (inactive), the GI50 [5] was 3.33 µM (inactive) and the GI50 [6] was 5.55 µM (inactive). The GI50 [7] was 5.86 µM (inactive), the GI50 [8] was 2.83 µM (inactive) and the GI50 [57] was 2.07 µM (inactive). For the same compound, the GI50 [9] was 4.37 µM (inactive), the GI50 [10] was > 10 µM (inactive) and the GI50 [11] was 4.13 µM (inactive). The GI50 [12] was 2.92 µM (inactive), the GI50 [13] was 2.32 µM (inactive) and the GI50 [14] was > 10 µM (inactive). For the same compound, the GI50 [15] was 2.76 µM (inactive), the GI50 [16] was 3.98 µM (inactive) and the GI50 [17] was 3.87 µM (inactive). For the same compound, the GI50 [18] was 3.24 µM (inactive), the GI50 [19] was 4.79 µM (inactive) and the GI50 [20] was 4.57 µM (inactive). For the same compound, the GI50 [21] was > 10 µM (inactive), the GI50 [22] was 4.53 µM (inactive) and the GI50 [23] was 2.21 µM (inactive). For the same compound, the GI50 [24] was 3.72 µM (inactive), the GI50 [25] was 3.02 µM (inactive) and the GI50 [26] was 4.37 µM (inactive). The GI50 [27] was 3.48 µM (inactive), the GI50 [28] was 4.8 µM (inactive) and the GI50 [29] was 5.13 µM (inactive). The GI50 [30] was 3.6 µM (inactive), the GI50 [31] was 7.1 µM (inactive) and the GI50 [32] was 0.287 µM (active). The GI50 [33] was 1.99 µM (inactive), the GI50 [34] was 2.14 µM (inactive) and the GI50 [35] was 2.5 µM (inactive). For the same compound, the GI50 [36] was 5.21 µM (inactive), the GI50 [37] was 3.01 µM (inactive) and the GI50 [38] was 3.03 µM (inactive). For the same compound, the GI50 [39] was 3 µM (inactive), the GI50 [40] was 1.93 µM (inactive) and the GI50 [41] was 3 µM (inactive). For the same compound, the GI50 [42] was 3.7 µM (inactive), the GI50 [43] was 3.31 µM (inactive) and the GI50 [44] was 3.85 µM. The GI50 [45] was 2.78 µM (inactive), the GI50 [46] was 3.33 µM (inactive) and the GI50 [58] was 2.59 µM (inactive). The GI50 [47] was 2.78 µM (inactive), the GI50 [48] was 2.94 µM (inactive) and the GI50 [49] was 3.15 µM (inactive). For the same compound, the GI50 [51] was 6.05 µM (inactive), the GI50 [52] was 5.38 µM (inactive) and the GI50 [53] was 2.88 µM (inactive). The GI50 [54] was 3.41 µM (inactive), the GI50 [55] was 4.2 µM (inactive) and the GI50 [56] was 5.01 µM (inactive).

With `Cc1nc2c(=O)n3c4c(cccc4c2o1)CCC3` the GI50 [1] was > 100 µM (inactive), the GI50 [2] was > 100 µM (inactive) and the GI50 [3] was > 100 µM (inactive). For the same compound, the GI50 [4] was > 100 µM (inactive), the GI50 [5] was > 100 µM (inactive) and the GI50 [6] was > 100 µM (inactive). For the same compound, the GI50 [7] was > 100 µM (inactive), the GI50 [8] was 73.5 µM (inactive) and the GI50 [57] was > 100 µM (inactive). For the same compound, the GI50 [9] was 96.8 µM (inactive), the GI50 [10] was > 100 µM (inactive) and the GI50 [11] was > 100 µM (inactive). For the same compound, the GI50 [12] was > 100 µM (inactive), the GI50 [13] was > 100 µM (inactive) and the GI50 [14] was > 100 µM (inactive). For the same compound, the GI50 [15] was > 100 µM (inactive), the GI50 [16] was > 100 µM (inactive) and the GI50 [17] was > 100 µM (inactive). The GI50 [18] was 78 µM (inactive), the GI50 [19] was 76.6 µM (inactive) and the GI50 [20] was > 100 µM (inactive). The GI50 [21] was > 100 µM (inactive), the GI50 [22] was > 100 µM (inactive) and the GI50 [23] was > 100 µM (inactive). For the same compound, the GI50 [24] was > 100 µM (inactive), the GI50 [25] was > 100 µM (inactive) and the GI50 [26] was > 100 µM (inactive). The GI50 [27] was 45.9 µM (inactive), the GI50 [28] was > 100 µM (inactive) and the GI50 [29] was > 100 µM (inactive). For the same compound, the GI50 [30] was > 100 µM (inactive), the GI50 [31] was > 100 µM (inactive) and the GI50 [32] was > 100 µM (inactive). For the same compound, the GI50 [33] was > 100 µM (inactive), the GI50 [34] was > 100 µM (inactive) and the GI50 [35] was > 100 µM (inactive). The GI50 [36] was > 100 µM (inactive), the GI50 [37] was > 100 µM (inactive) and the GI50 [38] was > 100 µM (inactive). For the same compound, the GI50 [39] was > 100 µM (inactive), the GI50 [40] was 37.9 µM (inactive) and the GI50 [41] was 43.5 µM (inactive). For the same compound, the GI50 [42] was > 100 µM (inactive), the GI50 [43] was > 100 µM (inactive) and the GI50 [44] was 49.4 µM. For the same compound, the GI50 [45] was 76.6 µM (inactive), the GI50 [46] was 72.8 µM (inactive) and the GI50 [58] was > 100 µM (inactive). For the same compound, the GI50 [48] was > 100 µM (inactive), the GI50 [49] was > 100 µM (inactive) and the GI50 [50] was > 100 µM (inactive). The GI50 [51] was > 100 µM (inactive), the GI50 [52] was > 100 µM (inactive) and the GI50 [53] was > 100 µM (inactive). The GI50 [54] was 76 µM (inactive), the GI50 [55] was > 100 µM (inactive) and the GI50 [56] was > 100 µM (inactive).
